One test deals with Liver cancer tumor cells. Put plainly: MTT proliferation inhibition, liver cancer cells. It counts as cell-based, human. Details: concentration or dose not given beside the values. The following applies: 48 h. Put shortly:
(§1)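 Tumour cells plated at 2×10^4 cells/mL, attached overnight, then exposed to dilutions of mPEG-HM-1 for 48 h at 37 °C, 5% CO2. MTT added 4 h, formazan dissolved in DMSO, absorbance 570/630 nm; growth inhibition = 1 − treated/untreated, three independent repeats, mean±SD.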

For test [1], the system named is Uterine cancer tumor cells. Briefly: MTT proliferation inhibition, uterine cancer cells. It counts as cell-based, human. Set-up: concentration or dose not given beside the values. The following applies: 48 h. Summed up: as §1
The subject of a further test is sarcoma tumor cells. Put plainly: MTT proliferation inhibition, sarcoma cells. The test is classed as cell-based, human. The following applies: 48 h. Set-up: concentration or dose not given beside the values. Summed up: as §1
In test [2] the test system is human retinal vascular endothelial cells (HRCEC). Briefly: MTT proliferation of human retinal vascular endothelial cells. The test is classed as cell-based. The following applies: 48 h; for Inhibition rate: HRCEC proliferation; for A570 nm-A630 nm: HRCEC. Put shortly: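 HRCEC seeded at 3.0×10^4 cells/mL, adhered overnight, then exposed to polypeptide dilutions for 48 h at 37° C, 5% CO2; medium-only blank control. MTT added for 4 h, formazan dissolved in DMSO. PI (%)=1−administration group/negative group; three independent repeats, mean±SD, t test.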

For test [3], the system named is neovascularization in rat model of premature retinopathy. Put plainly: Fluctuating-oxygen rat model of premature retinopathy (endothelial nuclei count). The test is classed as in vivo. The following applies: day 14. The procedure: A fluctuating oxygen-induced animal model was used to randomly divide the newborn rats that were naturally delivered on the same day (within 12 hours) into three groups: the oxygenated model group, the oxygenated treatment group, and the normal control group. The oxygenated model group was subdivided into three subgroup models and along with the oxygenated treatment group was placed in a semi-closed oxygen chamber made of plexiglass. The chamber was connected to medical oxygen, and the oxygen analyzer was adjusted to a concentration of 80%±2%. After 24 hours, Nitrogen gas was introduced into the oxygen chamber, and the oxygen concentration was adjusted to 10%±2% and maintained for 24 h. This process was repeated, so that the oxygen concentration in the oxygen chamber is switched between 80% and 10% every 24 hours, and then transferred to the air for 7 days. The oxygen concentration was monitored 8 times a day, and the ambient temperature in the control cabin was 23° C.±2° C. Bedding change, adding food, changing water and replacing mother rats were performed once a day. The normal control group was placed in an animal facility environment. […] The oxygenated therapeutic components were divided into four subgroups, and on the 7th day of modeling, mPEG-SC-HM-1, mPEG2-NHS-HM-1, mPEG-ALD10k-HM-1, and mPEG-bALD-HM-1 were respectively administered by intravitreal injection. Only normal saline was administered to the oxygen model group and the control group. The administrations continued for 1 week. […] After immersion in wax, serial section at thickness of 4 μm was performed, wherein the sections were kept away from the optic disc. The sections are parallel to the sagittal plane of the cornea to the optic disc. Ten sections per eyeball were randomly selected from each eyeball to be stained with hematoxylin and eosin, and the number of vascular endothelial cells that broke through the retinal inner membrane was counted (only the vascular endothelial nucleus closely related to the inner retinal membrane was counted), and the average numbers of endothelial cells per eyeball per slice was counted.

The next test deals with Melanoma tumor cells. Briefly: MTT proliferation inhibition, melanoma cells. The test is classed as cell-based, human. Details: concentration or dose not given beside the values. The following applies: 48 h. Summed up:
as §1

In test [4] the test system is Prostate cancer tumor cells. Put plainly: MTT proliferation inhibition, prostate cancer cells. The test is classed as cell-based, human. Set-up: concentration or dose not given beside the values. The following applies: 48 h. Put shortly:
as §1

Marks after values point to notes of the source that are not given here. Where no end group is shown, it is not given here.

For “mPEG-bALD5k-Arg-Gly-Ala-Asp-Arg-Ala-Gly-Gly-Gly-Gly-Arg-Gly-Asp ({mPEG‑bALD 5 kDa}-RGADRAGGGGRGD) [mPEG-bALD5k-HM-1]”, the “rate of growth inhibition” value came out at 55.63 ± 10.27% in the test on Liver cancer tumor cells; 65.46 ± 18.52% in test [1]; 41.42 ± 10.03% in the test with sarcoma tumor cells; 65.62 ± 20.35% with Melanoma tumor cells; 39.27 ± 12.50% in test [4]. In addition, the Inhibition rate in test [2] (20 μg/mL) is 41.82%*; in test [2] (40 μg/mL), 50.48%**; in test [2] (60 μg/mL) it was 62.77%*. The “A570 nm-A630 nm” value in test [2] (20 μg/mL, MTT) is listed as 0.7747 ± 0.08752; in test [2] (40 μg/mL, MTT), 0.6594 ± 0.08003; in test [2] (60 μg/mL, MTT) it was 04958 ± 0.07902. In test [3] (25 μg intravitreal for 1 week from day 7, vascular endothelial nuclei breaking through inner retinal membrane per slice), the Cell nuclei count amounted to 8.852 ± 2.933.
Take “mPEG-bALD10k-Arg-Gly-Ala-Asp-Arg-Ala-Gly-Gly-Gly-Gly-Arg-Gly-Asp ({mPEG‑bALD 10 kDa}-RGADRAGGGGRGD) [mPEG-bALD10k-HM-1]”: the “rate of growth inhibition” value in the test with Liver cancer tumor cells was determined as 68.59 ± 20.19%; in test [1], 79.79 ± 20.45%; in the test with sarcoma tumor cells, 52.01 ± 12.32%; in the test on Melanoma tumor cells it was 82.33 ± 20.08%; in test [4], 50.02 ± 10.65%. Moreover, the Inhibition rate in test [2] (40 μg/mL) is recorded as 47.95%*; in test [2] (60 μg/mL), 57.43%**; in test [2] (80 μg/mL), 75.19%*. The “A570 nm-A630 nm” value in test [2] (40 μg/mL, MTT) is recorded as 0.6931 ± 0.07754; in test [2] (60 μg/mL, MTT), 0.5669 ± 0.07609; in test [2] (80 μg/mL, MTT) it was 0.3304 ± 0.07354. Moreover, the “inhibition rate of HRCEC proliferation” value in test [2] (80 μg/mL, MTT) came out at 75.19%. For the same substance, in test [3] (50 μg intravitreal for 1 week from day 7, vascular endothelial nuclei per slice), the Cell nuclei count was determined as 7.627 ± 1.892.
Take “mPEG-bALD20k-Arg-Gly-Ala-Asp-Arg-Ala-Gly-Gly-Gly-Gly-Arg-Gly-Asp ({mPEG‑bALD 20 kDa}-RGADRAGGGGRGD) [mPEG-bALD20k-HM-1]”: the “rate of growth inhibition” value was determined as 62.49 ± 16.14% in the test on Liver cancer tumor cells; 75.97 ± 22.67% in test [1]; 50.91 ± 10.64% in the test on sarcoma tumor cells; 80.75 ± 22.94% in the test on Melanoma tumor cells; 46.90 ± 11.54% in test [4]. Also, the values for the Inhibition rate in test [2] (60 μg/mL), in test [2] (80 μg/mL) and in test [2] (100 μg/mL) were 47.53%*, 57.32%** and 69.12%*, respectively. Further, the “A570 nm-A630 nm” value in test [2] (60 μg/mL, MTT) came to 0.6987 ± 0.07838; in test [2] (80 μg/mL, MTT), 0.5683 ± 0.07055; in test [2] (100 μg/mL, MTT) it was 0.4112 ± 0.07405. In addition, the Cell nuclei count in test [3] (100 μg intravitreal for 1 week from day 7, vascular endothelial nuclei per slice) amounted to 7.158 ± 1.724.
For “mPEG-bALD40k-Arg-Gly-Ala-Asp-Arg-Ala-Gly-Gly-Gly-Gly-Arg-Gly-Asp ({mPEG‑bALD 40 kDa}-RGADRAGGGGRGD) [mPEG-bALD40k-HM-1]”, the “rate of growth inhibition” value in the test on Liver cancer tumor cells is given as 58.72 ± 10.80%; in test [1], 70.51 ± 20.22%; with sarcoma tumor cells, 47.90 ± 10.70%; in the test with Melanoma tumor cells it was 73.10 ± 20.55%; in test [4], 40.82 ± 11.75%. The results for the Inhibition rate in test [2] (80 μg/mL), in test [2] (100 μg/mL) and in test [2] (120 μg/mL) were 44.81%*, 55.03%** and 63.12%*, respectively. Further, the “A570 nm-A630 nm” value came out at 0.7349 ± 0.07082 in test [2] (80 μg/mL, MTT); 0.5988 ± 0.07291 in test [2] (100 μg/mL, MTT); 0.4911 ± 0.07534 in test [2] (120 μg/mL, MTT). This substance came in with a Cell nuclei count in test [3] (200 μg intravitreal for 1 week from day 7, vascular endothelial nuclei per slice) of 8.539 ± 2.218.
